Molecular target: CDK2 (UniProt P24941)
Test: Enzyme Assay
Details: concentration not given here

| inhibition | Compound |
| --- | --- |
| 100% | CC(=O)NC(=O)C(C)Nc1sc(C(C)C)cc1C(N)=O (stereo unspecified) |
| 100% | CC(c1ccccc1)c1cc(C(N)=O)c(NC(=O)CCC(=O)c2ccccc2)s1 (stereo unspecified) |
| 100% | NC(=O)c1c(NC(=O)c2ccccc2O)sc2c1CCCC2 |
| 100% | CC(c1ccccc1)c1cc(C(N)=O)c(NC(=O)c2cnc3ccccc3c2)s1 (stereo unspecified) |
| 100% | CC(C)c1cc(C(N)=O)c(NC(=O)CCC(=O)N(C)C)s1 |
| 100% | Cc1csc(NC(=O)Cc2c[nH]c3ccc(O)cc23)c1C(N)=O |
| 100% | CC(C)c1cc(C(N)=O)c(NC(=O)Cc2cccs2)s1 |
| 100% | Cc1csc(NC(=O)CCn2ccc3ccccc32)c1C(N)=O |
| 100% | Cc1sc(NC(=O)Cn2cc(C)c(=O)[nH]c2=O)c(C(N)=O)c1C |
| 100% | CN1CCc2c(sc(NC(=O)c3sc4ccccc4c3Cl)c2C(N)=O)C1 |
| 100% | C/C(=C/c1ccccc1)C(=O)Nc1sc(-c2ccccc2)cc1C(N)=O |
| 100% | NC(=O)c1cc(-c2ccccc2)sc1NC(=O)c1cccc(Cl)c1 |
| 100% | CN1CCc2c(sc(NC(=O)CCN3C(=O)c4ccccc4C3=O)c2C(N)=O)C1 |
| 100% | COc1ccc(C(=O)Nc2sc(C)c(C)c2C(N)=O)cc1OC |
| 100% | Cc1ccc2[nH]c(C(=O)Nc3sc(C)c(C)c3C(N)=O)cc2c1 |
| 100% | CC(c1ccccc1)c1cc(C(N)=O)c(NC(=O)C2=CN(C)CCC2)s1 (stereo unspecified) |
| 100% | CC(C)C(=O)Nc1sc2c(c1C(N)=O)CCCC2 |
| 100% | CCCC(Nc1sc(Cc2ccccc2)cc1C(N)=O)C(=O)NC(N)=O (stereo unspecified) |
| 100% | CCC(=O)C(=O)Nc1sc2c(c1C(N)=O)CCCC2 |
| 100% | CC(=O)Nc1ccc(Br)cc1C(=O)Nc1sc2c(c1C(N)=O)CCN(C)C2 |
| 100% | Cc1csc(NC(=O)C2c3ccccc3-c3ccccc32)c1C(N)=O |

| inhibition | Compound |
| --- | --- |
| 100% | CC(C)c1cc(C(N)=O)c(NC(=O)CCC2CCCC2)s1 |
| 100% | COc1ccc(OC)c(/C=C\C(=O)Nc2scc(C)c2C(N)=O)c1 |
| 100% | NC(=O)c1cc(-c2ccccc2)sc1NC(=O)c1ccc2cc[nH]c2c1 |
| 100% | NC(=O)c1cc(Cc2ccccc2)sc1NC(=O)c1cccc2[nH]ccc12 |
| 100% | CN(C)c1ccccc1C(=O)Nc1sc(Cc2ccccc2)cc1C(N)=O |
| 100% | COc1ccccc1/C=C\C(=O)Nc1sc(C(C)c2ccccc2)cc1C(N)=O (stereo unspecified) |
| 100% | CC(c1ccccc1)c1cc(C(N)=O)c(NC(=O)c2cccc3ccccc23)s1 (stereo unspecified) |
| 100% | Cc1cc(C(=O)Nc2sc(Cc3ccccc3)cc2C(N)=O)cc(C)c1O |
| 100% | COc1cc(CC(=O)Nc2scc(C)c2C(N)=O)cc(OC)c1 |
| 100% | Cc1csc(NC(=O)CNC(=O)c2ccccc2O)c1C(N)=O |
| 100% | CC(C)c1cc(C(N)=O)c(NC(=O)C2CCCN2C)s1 (stereo unspecified) |
| 100% | NC(=O)c1cc(-c2ccccc2)sc1NC(=O)Cc1ccccc1F |
| 100% | CN1CCc2c(sc(NC(=O)C(Cc3c[nH]cn3)NC(=O)c3ccccc3)c2C(N)=O)C1 (stereo unspecified) |
| 100% | COc1ccc(/C=C\C(=O)Nc2sc(C(C)c3ccccc3)cc2C(N)=O)cc1 (stereo unspecified) |
| 100% | NC(=O)c1cc(-c2ccccc2)sc1NC(=O)c1cccnc1Cl |
| 100% | COc1cc(C(=O)Nc2sc3c(c2C(N)=O)CCN(C)C3)cc(OC)c1OC |
| 100% | CN1CCc2c(sc(NC(=O)c3cc4cc(Cl)ccc4[nH]3)c2C(N)=O)C1 |
| 100% | Cc1ccc(C(=O)Nc2sc3c(c2C(N)=O)CCCC3)cc1 |
| 100% | CC(=O)N(CC(N)=O)c1sc2c(c1C(N)=O)CCCC2 |
| 100% | CN1CCc2c(sc(NC(=O)CCc3nc4c([nH]3)c(=O)n(C)c(=O)n4C)c2C(N)=O)C1 |
| 100% | NC(=O)c1c(NC(=O)C2CCCC2)sc2c1CCCC2 |

| inhibition | Compound |
| --- | --- |
| 100% | Cc1ccc(C(=O)Nc2sc(C(C)C)cc2C(N)=O)cc1C |
| 100% | NC(=O)c1cc(-c2ccccc2)sc1NC(=O)c1ccc(Cl)cc1 |
| 100% | CC(=O)CC(=O)N(CC(N)=O)c1sc(-c2ccccc2)cc1C(N)=O |
| 100% | COc1cc(C(=O)Nc2scc(C)c2C(N)=O)cc(OC)c1C |
| 100% | NC(=O)c1cc(Cc2ccccc2)sc1NC(=O)c1cc2ccccc2[nH]1 |
| 100% | NC(=O)c1cc(-c2ccccc2)sc1NC(=O)/C=C/c1cccs1 |
| 100% | Cc1csc(NC(=O)CCCCCN2C(=O)C=CC2=O)c1C(N)=O |
| 100% | Cc1csc(NC(=O)c2cc(-n3cccc3)ccc2O)c1C(N)=O |
| 100% | NC(=O)c1c(NC(=O)Cc2ccccc2)sc2c1CCCC2 |
| 100% | NC(=O)c1c(NC(=O)c2cnccn2)sc2c1CCCC2 |
| 100% | CC(C)c1cc(C(N)=O)c(NC(=O)C(C)c2ccccc2)s1 (stereo unspecified) |
| 100% | COc1cccc(OC)c1C(=O)Nc1sc(C)c(C)c1C(N)=O |
| 100% | Cc1nc2cc(C(=O)Nc3sc(C)c(C)c3C(N)=O)ccc2[nH]1 |
| 100% | NC(=O)c1cc(-c2ccccc2)sc1NC(=O)CCc1cccs1 |
| 100% | CN1CCc2c(sc(NC(=O)c3cc(O)c4cc(Cl)ccc4n3)c2C(N)=O)C1 |
| 100% | NC(=O)c1cc(Cc2ccccc2)sc1NC(=O)c1ccc2c(c1)OCO2 |
| 100% | NC(=O)c1c(NC(=O)c2cccc(O)c2)sc2c1CCCC2 |
| 100% | CCCN(C(=O)/C=C\C(N)=O)c1sc(-c2ccccc2)cc1C(N)=O |
| 100% | Cc1csc(NC(=O)C(C)NC(=O)c2ccccc2)c1C(N)=O (stereo unspecified) |
| 100% | CC(c1ccccc1)c1cc(C(N)=O)c(NC(=O)c2ccnc3ccccc23)s1 (stereo unspecified) |
| 100% | Cc1cccc(C(=O)Nc2sc(-c3ccccc3)cc2C(N)=O)c1O |

| inhibition | Compound |
| --- | --- |
| 100% | Cc1cccc(NC(=O)c2ccccc2C(=O)Nc2sc3c(c2C(N)=O)CCN(C)C3)c1 |
| 100% | NC(=O)c1cc(Cc2ccccc2)sc1NC(=O)c1ccc2[nH]cnc2c1 |
| 100% | Cc1sc(NC(=O)Cc2c[nH]c3ccccc23)c(C(N)=O)c1C |
| 100% | NC(=O)c1cc(-c2ccccc2)sc1NC(=O)Cc1cccc(F)c1 |
| 100% | CC(C)c1ccc(C(=O)Nc2sc(Cc3ccccc3)cc2C(N)=O)cc1 |
| 100% | NC(=O)c1cc(-c2ccccc2)sc1NC(=O)/C=C/c1ccsc1 |
| 100% | NC(=O)c1c(NC(=O)c2ccc[nH]2)sc2c1CCCC2 |
| 100% | Cc1ccoc1C(=O)Nc1sc2c(c1C(N)=O)CCCC2 |
| 100% | CCN(CC)CCC(=O)Nc1sc(C)c(C)c1C(N)=O |
| 100% | Cc1sc(NC(=O)Cc2ccc3c(c2)OCO3)c(C(N)=O)c1C |
| 100% | CC(=O)Nc1ccccc1C(=O)Nc1sc(C(C)c2ccccc2)cc1C(N)=O (stereo unspecified) |
| 100% | Cc1sc(NC(=O)CNc2cccnc2)c(C(N)=O)c1C |
| 100% | Cc1ccc(C(=O)Nc2sc(-c3ccccc3)cc2C(N)=O)c(O)c1 |
| 100% | Cc1sc(NC(=O)c2cc(=O)c3ccccc3o2)c(C(N)=O)c1C |
| 100% | CN1CCc2c(sc(NC(=O)/C=C\C(=O)Nc3ccc(Cl)cc3)c2C(N)=O)C1 |
| 100% | Cc1csc(NC(=O)CCc2nc3ccccc3[nH]2)c1C(N)=O |
| 100% | Cn1cccc1C(=O)Nc1sc2c(c1C(N)=O)CCCC2 |
| 100% | CNC(=O)CN(C(=O)c1ccccc1)c1scc(C)c1C(N)=O |

— the Kinase Knowledgebase extract (Sharma et al. 2016)
